According to patent publication US12122761B2, “2-azaspiro[3.4]octane derivatives as M4 agonists” (NOVARTIS AG, priority 2019, dated 2024):

Legend:
[1] = target: T1, human cloned CHRM4 receptor (M4_CHO cells) (Homo sapiens, UniProt P08173); assay: CHRM4 Ca++ Flux Assay (agonist mode, FDSS 7000EX); type: cell-based; conditions: for M4 FDSS PA / Emax: Percent Activity; for EC50: geometric mean if tested more than once, read-out: M4 FDSS EC50; for Emax: read-out: M4 FDSS PA
T1 construct: expressed in transfected cells; host or cells: CHO-K1
T1 sequence (P08173 1-479): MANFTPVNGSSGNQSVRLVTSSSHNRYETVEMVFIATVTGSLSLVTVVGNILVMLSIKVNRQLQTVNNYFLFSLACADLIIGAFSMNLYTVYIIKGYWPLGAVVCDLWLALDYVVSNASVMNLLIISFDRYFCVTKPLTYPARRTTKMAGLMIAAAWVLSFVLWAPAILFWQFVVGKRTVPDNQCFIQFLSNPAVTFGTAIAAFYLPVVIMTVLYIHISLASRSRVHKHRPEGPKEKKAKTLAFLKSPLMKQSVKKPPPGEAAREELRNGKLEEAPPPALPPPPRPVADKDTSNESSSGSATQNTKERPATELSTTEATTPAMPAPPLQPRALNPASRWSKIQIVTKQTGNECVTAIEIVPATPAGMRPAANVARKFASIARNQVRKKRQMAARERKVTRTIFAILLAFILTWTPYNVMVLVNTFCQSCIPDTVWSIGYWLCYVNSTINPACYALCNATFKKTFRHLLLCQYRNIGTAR
In short: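 Agonist-mode response was expressed as percent of the Carbachol EC100 and fitted with four-parameter nonlinear regression over an 11-point triplicate dose series. Intracellular Ca++ was tracked for 3 min by fluorescent dye in CHO-K1 cells stably expressing human CHRM4. Cells were preincubated 60 min with 20 μM ATP in buffer containing 2.5 mM probenecid.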

[2] = target: T2, Cloned human M1 receptor (CHRM1) stably expressed in HEK293 cells (Homo sapiens, UniProt P11229); assay: CHRM1 Ca++ Flux Assay (agonist mode, FDSS 7000EX); type: cell-based; conditions: for M1 FDSS PA: Percent Activity; for EC50: geometric mean if tested more than once; for Emax: HEK293, Percent Activity, read-out: M1 FDSS PA
T2 construct: expressed in transfected cells; host or cells: HEK293
T2 sequence (P11229 1-460): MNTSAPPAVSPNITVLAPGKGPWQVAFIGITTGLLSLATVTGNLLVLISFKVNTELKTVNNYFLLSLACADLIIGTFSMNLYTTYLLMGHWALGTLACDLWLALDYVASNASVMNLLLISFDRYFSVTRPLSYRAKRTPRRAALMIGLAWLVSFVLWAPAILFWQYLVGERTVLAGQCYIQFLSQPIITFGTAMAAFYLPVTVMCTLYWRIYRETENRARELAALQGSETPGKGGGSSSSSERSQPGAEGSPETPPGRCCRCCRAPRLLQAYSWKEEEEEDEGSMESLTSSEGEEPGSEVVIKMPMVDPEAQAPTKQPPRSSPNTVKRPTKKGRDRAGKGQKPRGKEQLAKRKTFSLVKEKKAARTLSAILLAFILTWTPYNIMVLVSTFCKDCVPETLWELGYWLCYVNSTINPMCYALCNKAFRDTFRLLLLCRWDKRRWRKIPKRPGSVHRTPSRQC
In short: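 Compounds tested as agonists at 11 concentrations in triplicate, with calcium traces captured over 3 minutes. Cells were HEK293 with stable human CHRM1 expression, plated overnight at 25K/well and loaded with calcium dye. Responses normalized to carbachol EC100 and fitted by four-parameter nonlinear regression.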

SMILES: O=C(N1CC2(CC[C@@H](N3CCC(c4cc(F)ccc4OC4CC5(COC5)C4)CC3)C2)C1)C1(F)CC1 (single isomer, unassigned) [Example 11A, (R)-(6-(4-(2-((2-oxaspiro[3.3]heptan-6-yl)oxy)-5-fluorophenyl)piperidin-1-yl)-2-azaspiro[3.4]octan-2-yl)(1-fluorocyclopropyl)methanone or (S)-(6-(4-(2-((2-oxaspiro[3.3]heptan-6-yl)oxy)-5-fluorophenyl)piperidin-1-yl)-2-azaspiro[3.4]octan-2-yl)(1-fluorocyclopropyl)methanone]
- M4 FDSS PA [1]: 45%
- EC50 [1]: 38 nM
- M1 FDSS PA [2]: 9%
- EC50 [2]: > 25000 nM

SMILES: O=C(N1CC2(CC[C@@H](N3CCC(c4cc(F)ccc4OC4CC5(COC5)C4)CC3)C2)C1)C1(F)CC1 (single isomer, unassigned) [Example 11B, (R)-(6-(4-(2-((2-oxaspiro[3.3]heptan-6-yl)oxy)-5-fluorophenyl)piperidin-1-yl)-2-azaspiro[3.4]octan-2-yl)(1-fluorocyclopropyl)methanone or (S)-(6-(4-(2-((2-oxaspiro[3.3]heptan-6-yl)oxy)-5-fluorophenyl)piperidin-1-yl)-2-azaspiro[3.4]octan-2-yl)(1-fluorocyclopropyl)methanone]
- M4 FDSS PA [1]: 51%
- EC50 [1]: 2 nM
- M1 FDSS PA [2]: 9%
- EC50 [2]: 30 nM

SMILES: O=C(N1CC2(CC[C@@H](N3CCC(c4ccccc4OC4CC5(COC5)C4)CC3)C2)C1)C1(F)CC1 (single isomer, unassigned) [Example 11C, (R)-(6-(4-(2-((2-oxaspiro[3.3]heptan-6-yl)oxy)phenyl)piperidin-1-yl)-2-azaspiro[3.4]octan-2-yl)(1-fluorocyclopropyl)methanone or (S)-(6-(4-(2-((2-oxaspiro[3.3]heptan-6-yl)oxy)phenyl)piperidin-1-yl)-2-azaspiro[3.4]octan-2-yl)(1-fluorocyclopropyl)methanone]
- M4 FDSS PA [1]: 47%
- EC50 [1]: 2 nM
- M1 FDSS PA [2]: 1%
- EC50 [2]: > 25000 nM

SMILES: O=C(N1CC2(CC[C@@H](N3CCC(c4ccccc4OC4CC5(COC5)C4)CC3)C2)C1)C1(F)CC1 (single isomer, unassigned) [Example 11D, (R)-(6-(4-(2-((2-oxaspiro[3.3]heptan-6-yl)oxy)phenyl)piperidin-1-yl)-2-azaspiro[3.4]octan-2-yl)(1-fluorocyclopropyl)methanone or (S)-(6-(4-(2-((2-oxaspiro[3.3]heptan-6-yl)oxy)phenyl)piperidin-1-yl)-2-azaspiro[3.4]octan-2-yl)(1-fluorocyclopropyl)methanone]
- M4 FDSS PA [1]: 38%
- EC50 [1]: 97 nM
- M1 FDSS PA [2]: 1%
- EC50 [2]: > 25000 nM

SMILES: Fc1ccc(OC2CC3(COC3)C2)c(C2CCN([C@@H]3CCC4(C3)CN(c3nnco3)C4)CC2)c1 [Example 1B, (R)-2-(6-(4-(2-((2-oxaspiro[3.3]heptan-6-yl)oxy)-5-fluorophenyl)piperidin-1-yl)-2-azaspiro[3.4]octan-2-yl)-1,3,4-oxadiazole]
- Emax [1]: 69%
- EC50 [1]: 1 nM
- Emax [2]: 48%
- EC50 [2]: 322 nM

SMILES: c1ccc(C2CCN([C@@H]3CCC4(C3)CN(c3nnco3)C4)CC2)c(OC[C@H]2COCCO2)c1 [Example 1C, 2-((R)-6-(4-(2-(((R)-1,4-dioxan-2-yl)methoxy)phenyl)piperidin-1-yl)-2-azaspiro[3.4]octan-2-yl)-1,3,4-oxadiazole]
- Emax [1]: 75%
- EC50 [1]: < 0.4 nM
- Emax [2]: 85%
- EC50 [2]: 56 nM

SMILES: Cc1coc(N2CC3(CC[C@@H](N4CCC(c5ccc(F)cc5OCC(C)(C)O)CC4)C3)C2)n1 [Example 3N, (R)-1-(5-fluoro-2-(1-(2-(4-methyloxazol-2-yl)-2-azaspiro[3.4]octan-6-yl)piperidin-4-yl)phenoxy)-2-methylpropan-2-ol]
- Emax [1]: 0%
- EC50 [1]: > 25000 nM
- Emax [2]: 0%
- EC50 [2]: > 25000 nM

SMILES: Cc1coc(N2CC3(CC[C@@H](N4CCC(c5ccccc5OCC(C)(C)O)CC4)C3)C2)n1 [Example 3O, (R)-2-methyl-1-(2-(1-(2-(4-methyloxazol-2-yl)-2-azaspiro[3.4]octan-6-yl)piperidin-4-yl)phenoxy)propan-2-ol]
- Emax [1]: 1%
- EC50 [1]: > 25000 nM
- Emax [2]: 0%
- EC50 [2]: > 25000 nM

SMILES: COc1ccccc1C1CCN([C@@H]2CCC3(C2)CN(c2ncon2)C3)CC1 [Example 4A, (R)-3-(6-(4-(2-methoxyphenyl)piperidin-1-yl)-2-azaspiro[3.4]octan-2-yl)-1,2,4-oxadiazole]
- Emax [1]: 77%
- EC50 [1]: < 0.4 nM
- Emax [2]: 83%
- EC50 [2]: 15 nM

SMILES: COc1ccccc1C1CCN([C@@H]2CCC3(C2)CN(c2cncnc2)C3)CC1 [Example 5A, (R)-6-(4-(2-methoxyphenyl)piperidin-1-yl)-2-(pyrimidin-5-yl)-2-azaspiro[3.4]octane]
- Emax [1]: 64%
- EC50 [1]: 2 nM
- Emax [2]: 64%
- EC50 [2]: 105 nM

SMILES: CC(C)(O)COc1ccccc1C1CCN([C@@H]2CCC3(C2)CN(c2cncnc2)C3)CC1 [Example 5B, (R)-2-methyl-1-(2-(1-(2-(pyrimidin-5-yl)-2-azaspiro[3.4]octan-6-yl)piperidin-4-yl)phenoxy)propan-2-ol]
- Emax [1]: 53%
- EC50 [1]: 4 nM
- Emax [2]: 35%
- EC50 [2]: 191 nM

SMILES: Cc1ncncc1N1CC2(CC[C@@H](N3CCC(c4ccccc4OCC(C)(C)O)CC3)C2)C1 [Example 5C, (R)-2-methyl-1-(2-(1-(2-(4-methylpyrimidin-5-yl)-2-azaspiro[3.4]octan-6-yl)piperidin-4-yl)phenoxy)propan-2-ol]
- Emax [1]: 6%
- EC50 [1]: > 25000 nM
- Emax [2]: 69%
- EC50 [2]: 420 nM

SMILES: COc1ccccc1C1CCN([C@@H]2CCC3(C2)CN(c2ccc(C)nc2)C3)CC1 [Example 5D, (R)-6-(4-(2-methoxyphenyl)piperidin-1-yl)-2-(6-methylpyridin-3-yl)-2-azaspiro[3.4]octane]
- Emax [1]: 36%
- EC50 [1]: 156 nM
- Emax [2]: 0%
- EC50 [2]: > 25000 nM

SMILES: COc1ccccc1C1CCN([C@@H]2CCC3(C2)CN(c2cnc(C)nc2)C3)CC1 [Example 5E, (R)-6-(4-(2-methoxyphenyl)piperidin-1-yl)-2-(2-methylpyrimidin-5-yl)-2-azaspiro[3.4]octane]
- Emax [1]: 2%
- EC50 [1]: > 25000 nM
- Emax [2]: 0%
- EC50 [2]: > 25000 nM

SMILES: COc1ccccc1C1CCN([C@@H]2CCC3(C2)CN(c2cncc(F)c2)C3)CC1 [Example 5F, (R)-2-(5-fluoropyridin-3-yl)-6-(4-(2-methoxyphenyl)piperidin-1-yl)-2-azaspiro[3.4]octane]
- Emax [1]: 59%
- EC50 [1]: 6 nM
- Emax [2]: 7%
- EC50 [2]: 3760 nM

SMILES: COc1ccccc1C1CCN([C@@H]2CCC3(C2)CN(c2cncc(C)n2)C3)CC1 [Example 5G, (R)-6-(4-(2-methoxyphenyl)piperidin-1-yl)-2-(6-methylpyrazin-2-yl)-2-azaspiro[3.4]octane]
- Emax [1]: 1%
- EC50 [1]: > 25000 nM
- Emax [2]: 0%
- EC50 [2]: > 25000 nM

SMILES: COc1ccccc1C1CCN([C@@H]2CCC3(C2)CN(c2cnccn2)C3)CC1 [Example 5H, (R)-6-(4-(2-methoxyphenyl)piperidin-1-yl)-2-(pyrazin-2-yl)-2-azaspiro[3.4]octane]
- Emax [1]: 61%
- EC50 [1]: 1 nM
- Emax [2]: 50%
- EC50 [2]: 48 nM
